Data published in patent US10730825B2, “Methods for the treatment of diabetic retinopathy and other ophthalmic diseases” (Acucela Inc., priority 2012, dated 2020).
pIC50: −log10 of the molar value.

What was measured:
[1] = test system: retinal cationic activity (Mn2+ uptake); assay: Manganese-enhanced MRI (MEMRI) single dose study; conditions: rats, Mn2+ uptake by MRI
Procedure: Rats are to be maintained in regular laboratory lighting (12 hours light, 12 hours dark) prior to start of experimental period—light exposure, bleaching, dark adaption will vary by cohort (see below).
Animals are to be dosed by oral gavage according to group assignment below. Rats are to be weighed each week of the experimental period.
Dilate pupils by applying 1 drop of tropicamide (0.5%) 10-30 minutes before photobleaching. Photobleach animals for 10 minutes by exposure to 5000 lux 4 hours before MRI imaging.
Inject rats immediately after bleach, 4 hours prior to the start of imaging session. MEMRI signal reflects state of expression of activity-dependent channels during experimental period.
Keep rats in dark (IOP room) during the 4 hours between injection and transport to the imaging center for practice experiments for all groups except group 4. Keep animals from group 4 exposed to light during 4 hours between MnCl2 injection and MRI imaging. Otherwise follow light-dark-bleaching cycle described for each cohort.
A snapshot FLASH inversion recovery (IR) imaging sequence is used to acquire a single imaging slice bisecting the retina in the axial and sagittal planes, using a 12 mm inner diameter linear surface coil. […] The approximate scan time per animal is ˜16 minutes. […]

VEGF = VEGF up-regulation caused by hypoxic conditions; format: in vivo; conditions: for VEGF mRNA levels: compared to vehicle control
Procedure: FIG. 8 depicts a protocol used to test if ACU-4935 reduced VEGF up-regulation caused by hypoxic conditions. Briefly, animals were adapted for dark for 16 hours, then dosed with ACU-4935. Animals were photobleached for 10 minutes with 50000 Lux 2 hours after being dosed, followed by a 2 hour recovery in the dark. Hypoxia was induced with 6% O2 for 6 hours. A portion of the animals were euthanized and samples were collected at time 0. Another portion of the animals were returned to the dark for 2 more hours prior to being euthanized and sample collection.
Samples were tested for VEGF protein (FIG. 9) and mRNA expression (FIG. 10).

visual cycle isomerase [2] = biological target: T1, visual cycle isomerase (Homo sapiens, UniProt Q16518); assay: in vitro isomerase activity; format: biochemical
T1 sequence (Q16518 1-533): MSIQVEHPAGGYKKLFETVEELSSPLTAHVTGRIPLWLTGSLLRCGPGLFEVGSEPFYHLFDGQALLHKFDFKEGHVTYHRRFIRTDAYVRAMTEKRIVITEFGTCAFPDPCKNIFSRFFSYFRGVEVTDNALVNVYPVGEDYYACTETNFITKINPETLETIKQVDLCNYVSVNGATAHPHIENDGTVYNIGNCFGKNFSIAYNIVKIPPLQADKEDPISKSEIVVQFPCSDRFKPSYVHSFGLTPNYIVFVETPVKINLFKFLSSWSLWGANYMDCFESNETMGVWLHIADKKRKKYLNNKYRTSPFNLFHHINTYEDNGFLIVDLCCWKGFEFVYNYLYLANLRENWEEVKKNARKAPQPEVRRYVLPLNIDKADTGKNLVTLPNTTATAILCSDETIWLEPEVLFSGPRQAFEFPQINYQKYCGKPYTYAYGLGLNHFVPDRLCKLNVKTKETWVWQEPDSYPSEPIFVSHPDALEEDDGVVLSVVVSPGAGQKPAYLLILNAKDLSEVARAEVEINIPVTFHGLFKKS

visual cycle isomerase [3] = biological target: T2, visual cycle isomerase (Mus musculus, UniProt Q91ZQ5); assay: in vivo isomerase assay single dose, mice
T2 sequence (Q91ZQ5 1-533): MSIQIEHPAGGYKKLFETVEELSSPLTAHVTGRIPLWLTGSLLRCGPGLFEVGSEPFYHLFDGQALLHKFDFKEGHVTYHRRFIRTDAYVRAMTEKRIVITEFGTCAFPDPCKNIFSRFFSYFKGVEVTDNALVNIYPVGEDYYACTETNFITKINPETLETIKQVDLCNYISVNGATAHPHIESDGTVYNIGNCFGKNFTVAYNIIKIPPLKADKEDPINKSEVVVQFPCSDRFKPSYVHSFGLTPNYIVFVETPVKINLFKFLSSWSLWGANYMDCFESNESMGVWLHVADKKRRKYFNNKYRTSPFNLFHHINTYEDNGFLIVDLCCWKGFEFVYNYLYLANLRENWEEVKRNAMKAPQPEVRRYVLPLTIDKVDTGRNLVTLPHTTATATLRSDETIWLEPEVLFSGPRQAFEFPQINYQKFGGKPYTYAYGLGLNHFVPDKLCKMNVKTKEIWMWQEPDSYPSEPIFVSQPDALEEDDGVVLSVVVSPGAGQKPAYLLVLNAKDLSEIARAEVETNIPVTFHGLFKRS

[4] = test system: retinal neovascularization; assay: Retinal neovascularization in mouse model of oxygen-induced retinopathy (OIR); conditions: OIR mice; for Retinal neovascular area reduced: 4 days
Procedure: Pups were euthanized on P17, when neovascularization was maximal and eyes were removed for analysis.
Areas of retinal neovascularization were visualized with isoelectin staining of flatmount preparations and quantified with the lasso tool in Adobe Photoshop; total area of neovascularization indicated the sum of individual areas across the retina, and % neovascularization was relative to the total area of the retina^4.
Statistical analyses were performed using GraphPad Prism software.

CC(=O)NCC=C(C)C=CC=C(C)C=CC1=C(C)CCCC1(C)C [Retinyl acetamide]
Retinal behaviour after bleach and dark adaptation (expectation) [1]: behave as if they were light adapted

CCCC(CCC)COc1cccc([C@H](O)CCN)c1 [ACU-4935, (R)-3-amino-1-(3-(2-propylpentyloxy)phenyl)propan-1-ol]
VEGF mRNA levels (VEGF; 2 hours post-hypoxia): slightly increased | VEGF protein expression (VEGF; after 6% O2 for 6 hours, vs vehicle): Slight differences | VEGF mRNA levels (VEGF; time 0 after hypoxia): decreased | pIC50 (visual cycle isomerase [2]): 8.28 | ED50 (visual cycle isomerase [3]): 0.4 µg/kg | Retinal neovascular area reduced ([4]; 0.3 mg/kg/day intraperitoneal, vs vehicle): 23% | Retinal neovascular area compared to treatment with vehicle [4]: significantly reduced

CN(C)C[C@@H]1CCn2cc(c3ccccc32)C2=C(C(=O)NC2=O)c2cn(c3ccccc23)CCO1 [Ruboxistaurin, reference compound]
Retinal neovascular area reduced ([4]; 10 mg/kg/day intraperitoneal, positive control): 29%
